According to patent US7858637B2, “Administration of TLR7 ligands and prodrugs thereof for treatment of infection by hepatitis C virus” (priority 2003, dated 2010):
“And” between values parts separate entries of the source, which are not always exact repeats. Equal entries are not always repeated. “Also recorded” adds a separate entry of the source. Where two headings read alike, the source gives them in different places.

Columns and labels:
[1] = cited from earlier work
[2] = test system: interferon alpha; assay: Interferon alpha plasma concentrations in mice; format: in vivo, mouse; settings: mice
Text: Not only can one measure the plasma concentrations of isatoribine arising from oral administration of the said prodrug(s) but also the extensive immunological research conducted in the mouse has provided reagents suitable for measuring the levels of interferon alpha, a cytokine of interest reflecting one of the desired biologic activities of isatoribine.

[3] = one vehicle dose, one oral 50 mg/kg dose 4 hours later, time 4.03 h (second dose)
[4] = one vehicle dose, one oral 50 mg/kg dose 4 hours later, time 4.08 h (second dose)
[5] = one vehicle dose, one oral 50 mg/kg dose 4 hours later, time 4.25 h (second dose)
[6] = one vehicle dose, one oral 50 mg/kg dose 4 hours later, time 8.00 h (second dose)
[7] = two oral 50 mg/kg doses 4 hours apart, time 0.08 h (first dose)
[8] = two oral 50 mg/kg doses 4 hours apart, time 0.50 h (first dose)
[9] = two oral 50 mg/kg doses 4 hours apart, time 1.00 h (first dose)

For Nc1nc2c(sc(=O)n2[C@@H]2O[C@H](CO)[C@@H](O)[C@H]2O)c(=O)[nH]1 [Compound 21, 7-thia-8-oxoguanosine], the “Emesis or loose stool” value ([1]; dog, in vivo, po, 2.5 mg/kg) is given as “Neg”, the “GI lesions or irritation” value ([1]; dog, in vivo, po, 2.5 mg/kg) is given as “Neg” and the “Emesis or loose stool” value ([1]; dog, in vivo, po, 5 mg/kg) is given as “+”. The “GI lesions or irritation” value ([1]; dog, in vivo, po, 5 mg/kg) was “Neg”, the “Emesis or loose stool” value ([1]; dog, in vivo, po, 10 mg/kg) was “++” and the “GI lesions or irritation” value ([1]; dog, in vivo, po, 10 mg/kg) was “++”. The “multiple, scattered red lesions on the intestinal mucosa (gross histopathologic evaluation of the GI tract)” value ([1]; dog, in vivo, po, 10 mg/kg) was “four of eight dogs”, the NOAEL ([1]; dogs, orally administered, established by the GI effects) was 5 mg/kg and the “Mu-IFN-α plasma concentration, individual value” [2, 3] was “BQL^25 pg/mL”. The “Mu-IFN-α plasma concentration, mean” value [2, 3] was 0.00 pg/mL, the “Mu-IFN-α plasma concentration, individual value” [2, 4] was “BQL^25 pg/mL” and the “Mu-IFN-α plasma concentration, mean” value [2, 4] was 0.00 pg/mL. For the same molecule, the “Mu-IFN-α plasma concentration, individual value” [2, 5] was “BQL^25 pg/mL”, the “Mu-IFN-α plasma concentration, mean” value [2, 5] was 0.00 pg/mL and the “Mu-IFN-α plasma concentration, mean” value ([2]; one vehicle dose, one oral 50 mg/kg dose 4 hours later, time 4.50 h (second dose)) was 44.4 pg/mL. The “Mu-IFN-α plasma concentration, individual value” ([2]; one vehicle dose, one oral 50 mg/kg dose 4 hours later, time 4.50 h (second dose), listed as Isatoribine, 50 mg/kg) was “BQL^100 pg/mL and BQL^25 pg/mL and 133.2 pg/mL”, the “Mu-IFN-α plasma concentration, mean” value ([2]; one vehicle dose, one oral 50 mg/kg dose 4 hours later, time 5.00 h (second dose)) was 37.5 pg/mL and the “Mu-IFN-α plasma concentration, individual value” ([2]; one vehicle dose, one oral 50 mg/kg dose 4 hours later, time 5.00 h (second dose), listed as Isatoribine, 50 mg/kg) was 74.9 pg/mL and BQL^50 pg/mL. For the same molecule, the “Mu-IFN-α plasma concentration, mean” value ([2]; one vehicle dose, one oral 50 mg/kg dose 4 hours later, time 5.50 h (second dose)) was 0.00 pg/mL, the “Mu-IFN-α plasma concentration, individual value” ([2]; one vehicle dose, one oral 50 mg/kg dose 4 hours later, time 5.50 h (second dose), listed as Isatoribine, 50 mg/kg) was “BQL^250 pg/mL; also recorded: BQL^75 pg/mL; also recorded: BQL^25 pg/mL” and the “Mu-IFN-α plasma concentration, mean” value ([2]; one vehicle dose, one oral 50 mg/kg dose 4 hours later, time 6.00 h (second dose)) was 0.00 pg/mL. For the same molecule, the “Mu-IFN-α plasma concentration, individual value” ([2]; one vehicle dose, one oral 50 mg/kg dose 4 hours later, time 6.00 h (second dose), listed as Isatoribine, 50 mg/kg) was “BQL^25 pg/mL; also recorded: BQL^75 pg/mL”, the “Mu-IFN-α plasma concentration, mean” value ([2]; one vehicle dose, one oral 50 mg/kg dose 4 hours later, time 7.00 h (second dose)) was 0.00 pg/mL and the “Mu-IFN-α plasma concentration, individual value” ([2]; one vehicle dose, one oral 50 mg/kg dose 4 hours later, time 7.00 h (second dose), listed as Isatoribine, 50 mg/kg) was “BQL^50 pg/mL; also recorded: BQL^25 pg/mL”. The “Mu-IFN-α plasma concentration, individual value” [2, 6] was “BQL^25 pg/mL”, the “Mu-IFN-α plasma concentration, mean” value [2, 6] was 0.00 pg/mL and the “Mu-IFN-α plasma concentration, mean” value ([2]; two oral 50 mg/kg doses 4 hours apart, time 0.00 h (first dose)) was 0.00 pg/mL. For the same molecule, the “Mu-IFN-α plasma concentration, individual value” ([2]; two oral 50 mg/kg doses 4 hours apart, time 0.00 h (first dose), listed as Isatoribine, 50 mg/kg) was “BQL^50 pg/mL; also recorded: BQL^125 pg/mL”, the “Mu-IFN-α plasma concentration, mean” value ([2]; two oral 50 mg/kg doses 4 hours apart, time 0.03 h (first dose)) was 0.00 pg/mL and the “Mu-IFN-α plasma concentration, individual value” ([2]; two oral 50 mg/kg doses 4 hours apart, time 0.03 h (first dose), listed as Isatoribine, 50 mg/kg) was “BQL^25 pg/mL; also recorded: BQL^250 pg/mL”. The “Mu-IFN-α plasma concentration, individual value” [2, 7] was “BQL^25 pg/mL”, the “Mu-IFN-α plasma concentration, mean” value [2, 7] was 0.00 pg/mL and the “Mu-IFN-α plasma concentration, mean” value ([2]; two oral 50 mg/kg doses 4 hours apart, time 0.25 h (first dose)) was 0.00 pg/mL. For the same molecule, the “Mu-IFN-α plasma concentration, individual value” ([2]; two oral 50 mg/kg doses 4 hours apart, time 0.25 h (first dose), listed as Isatoribine, 50 mg/kg) was “BQL^50 pg/mL; also recorded: BQL^25 pg/mL”, the “Mu-IFN-α plasma concentration, individual value” [2, 8] was “BQL^25 pg/mL” and the “Mu-IFN-α plasma concentration, mean” value [2, 8] was 0.00 pg/mL. The “Mu-IFN-α plasma concentration, individual value” [2, 9] was “BQL^25 pg/mL”, the “Mu-IFN-α plasma concentration, mean” value [2, 9] was 0.00 pg/mL and the “Mu-IFN-α plasma concentration, mean” value ([2]; two oral 50 mg/kg doses 4 hours apart, time 1.50 h (first dose)) was 0.00 pg/mL.
